Test results taken from patent US20090042917A1, “Aminopyrimidine Derivative and Plant Disease Control Agent for Agricultural or Horticultural Use” (KUMIAI CHEMICAL INDUSTRY CO., LTD., priority 2006, published 2009).

Key:
Assay type in all cases: in vivo
Septoria nodorum = assay: Test on protective effect against Septoria nodorum (wheat); conditions: 500 ppm active ingredient sprayed on wheat (Norin No. 61) at two-leaf stage before inoculation; 9 days after
Experimental: 10 wheat seeds (variety: Norin No. 61) were sown in each plastic cup having a diameter of 5.5 cm and allowed to grow for 9 days in a greenhouse. […] After air drying, the plants were inoculated by spraying with a pycnidiospore suspension of Septoria nodorum. The inoculated plants were immediately put in a moist chamber at 25° C. (relative humidity of 100%) for 48 hours. Thereafter, the plants were transferred to a greenhouse. 9 days after, disease development indexes of first leaves for total pots were examined according to the standard in Test Example 3, a disease severity was determined using the expression in Test Example 3 and a control level (%) was calculated using the expression in Test Example 3.

Rhizoctonia solani = assay: Test on protective effect against Rhizoctonia solani (rice pot test); conditions: 500 ppm active ingredient sprayed on rice (Kinmaze) at 2.5 to 3-leaf stage before inoculation; 5 days after inoculation
Experimental: 15 rice seeds (variety: Kinmaze) were sown in each clay pot having a diameter of 7.5 cm and allowed to grow for 3 weeks in a greenhouse. […] After air drying, the plants were inoculated by uniformly covering the surface of the soil with Rhizoctonia solani cultured in a rice-husk bran medium and incubated in a moist chamber at 30° C. […] The standard for disease development index is as follows: [table] Hereinbelow, an expression to calculate a control level (%) is shown. [formula]

Pyricularia oryzae = assay: whole plant or invertebrate; conditions: 500 ppm active ingredient sprayed on rice (Aichi Asahi) at four-leaf stage before inoculation; lesions counted 5 days after inoculation
Botrytis cinerea = assay: Test on protective effect against Botrytis cinerea (cucumber seedlings); conditions: 500 ppm active ingredient sprayed on cucumber (Sagami-Hanziro) seedlings before inoculation; 2 days after
Experimental: 4 cucumber seeds (variety: Sagami-Hanziro) were sown in each plastic cup having a diameter of 5.5 cm and allowed to grow for 7 days in a greenhouse. […] After air drying, a sterilized paper disc was immersed in a conidia suspension of Botrytis cinerea and laid on an upper side of a cucumber cotyledon for innoculation and thereafter cared in a moist chamber at 20° C.

[1] = test system: Pseudoperonospora cubensis; assay: Test on protective effect against Pseudoperonospora cubensis (cucumber seedlings); conditions: 500 ppm active ingredient sprayed on cucumber (Sagami-Hanziro) seedlings before inoculation; 6 days after
Experimental: 4 cucumber seeds (variety: Sagami-Hanziro) were sown in each plastic cup having a diameter of 5.5 cm and allowed to grow for 7 days in a greenhouse. […] After air drying, the plants were inoculated by spraying with a conidia suspension of Pseudoperonospora cubensis. The inoculated plants were immediately put in a moist chamber at 20° C. (relative humidity of 100%) for 24 hours. Thereafter, the plants were transferred to a greenhouse. 6 days after, disease development indexes of cotyledons for total pots were examined according to the standard described below, a disease severity was determined using an expression shown below and a control level (%) was calculated using another expression shown below. The standard for disease development index is as follows: [table] Hereinbelow, an expression to calculate a disease severity (%) is shown. [formula] Hereinbelow, an expression to calculate a control level (%) is shown. [formula]

Measured: control level

Clc1nc(-n2cccn2)nc(N2CCCC2)c1Cc1ccccc1 [Comparative Compound 1, reference compound]
did not exhibit a control effect: all assays above
